Source: patent US4737500A, “1-substituted-4-(thiazolyl-2-)-piperazines, -piperidines and -tetrahydropyridines useful as anxiolytic, psychogeriatric, antidepressant and antischizophrenic agents” (priority 1985, dated 1988)

What was measured:
[1] = characteristic for antidepressants; H. Kleinlogel, page 83; cited from earlier work
[2] = reference antidepressants, A. K. Dixon 1982; cited from earlier work
[3] = reference antischizophrenics; Sayers and Kleinlogel 1974; cited from earlier work
[4] = target: T1, 5HT-1A-binding sites in the pig cortex (Sus scrofa, UniProt A0A4X1UTF5); test: 5HT-1A-binding affinity test, binding of 3H-8-hydroxy-2-(di-n-propylamino)-tetraline (3H-PAT)
T1 construct: from tissue; host or cells: pig cortex
T1 sequence (A0A4X1UTF5 1-422): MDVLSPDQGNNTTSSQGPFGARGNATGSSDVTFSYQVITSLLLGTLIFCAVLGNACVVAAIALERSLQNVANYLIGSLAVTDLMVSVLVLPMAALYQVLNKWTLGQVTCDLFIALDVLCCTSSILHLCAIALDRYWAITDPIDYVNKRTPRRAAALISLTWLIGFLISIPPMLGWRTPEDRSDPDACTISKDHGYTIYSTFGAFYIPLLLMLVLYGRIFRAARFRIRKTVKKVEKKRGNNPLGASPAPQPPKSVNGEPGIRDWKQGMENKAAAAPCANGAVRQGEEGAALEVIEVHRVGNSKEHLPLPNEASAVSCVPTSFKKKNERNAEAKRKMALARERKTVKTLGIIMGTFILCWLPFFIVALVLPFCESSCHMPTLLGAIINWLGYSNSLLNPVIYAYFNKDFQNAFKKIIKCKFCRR

[5] = 8h-sleep-EEG: sleep phases in the sleep/wake cycle in the rat; format: in vivo; details: 10 mg/kg p.o.; rat 8h-sleep-EEG
Experimental: Further, the compounds of formula I modify the sleep phases in the sleep/wake cycle in the rat after administration of 3 to 30 mg/kg p.o. [H. Kleinlogel, EEG in Drug Research, Ed. H. Hermann, Gustav Fischer Verlag, Stuttgart, New York, 75-88 (1982)]. In the 8h-EEG, the slow wave phase (SWS) is increased, whereas the spindle phase and the paradoxical sleep phase (PS) are reduced. In Hjorth, parameters are the mean EEG amplitude (CA) and the complexity (CCF) increased.

[6] = aggression test: social interactions in male mice in aggression-evoking social encounters; format: in vivo, mouse; details: 0.3 mg/kg p.o. (acute administration)
Experimental: The compounds of formula I promote social interactions after acute and chronic administration of 0.3 to 10 mg/kg p.o. in male mice in aggression-evoking social encounters [A. K. Dixon, Triangle 21 (1982) 95-105; M. Krsiak, Brit. J. Pharmacol. 55 (1975) 141-150]. […] M. Y. Spiegelstein, A. Levy, Elsevier, Amsterdam (1982) 39-55].

[7] = atypical dozing in the rat-8h-sleep-EEG; format: in vivo; details: 10 mg/kg p.o.

In the case of CN(C)CCCN1c2ccccc2CCc2ccccc21 [imipramine], the “decrease of paradoxical sleep phase” value [1] is given as “decrease of paradoxical sleep phase” and the “promotion of social behaviour” value [2] is given as “promote social behaviour”.
In the case of CNCCCN1c2ccccc2CCc2ccccc21 [desipramine], the “decrease of paradoxical sleep phase” value [1] is listed as “decrease of paradoxical sleep phase”.
For O=C(CCCN1CCC(O)(c2ccc(Cl)cc2)CC1)c1ccc(F)cc1 [haloperidol], the “atypical dozing characteristic for antischizophrenics” value [3] is given as “atypical dozing characteristic”.
In the case of CN(C)CCC=C1c2ccccc2CCc2ccccc21 [amitriptyline], the “promotion of social behaviour” value [2] is given as “promote social behaviour”.
For CN1Cc2c(N)cccc2C(c2ccccc2)C1 (stereo not drawn) [nomifensine], the “decrease of paradoxical sleep phase” value [1] is given as “decrease of paradoxical sleep phase”.
For CN1CCN2c3ccccc3Cc3ccccc3C2C1 (stereo not drawn) [mianserine], the “decrease of paradoxical sleep phase” value [1] is listed as “decrease of paradoxical sleep phase”.
Work on O=C1CC2(CCCC2)CC(=O)N1CCCCN1CCN(c2ncccn2)CC1 [buspirone] yielded an IC50 [4] of 10 to 400 nM.
In the case of COc1ccc(Cl)cc1C(=O)NCCN1CCN(c2nc(C(C)(C)C)cs2)CC1 [Example 8, 5-Chloro-2-methoxy-N-(2-(4-(4-(1,1-dimethylethyl)-2-thiazolyl)-1-piperazinyl)ethyl)-benzamide], the “complexity (CCF)” value [5] is reported as “increased”, the “mean EEG amplitude (CA)” value [5] is reported as “increased” and the “paradoxial sleep phase (PS)” value [5] is reported as “reduces”. The “slow wave phase (SWS)” value [5] was “increases”, the spindle phase [5] was “reduces” and the “promotion of social interactions” value [6] was “promotes social interactions”. For the same compound, the atypical dozing [7] was “shows atypical dozing” and the IC50 [4] was 600 nM.
In the case of CN(C)CCN1C(=O)c2ccccc2N(C)c2ccccc21 [dibenzepine], the “decrease of paradoxical sleep phase” value [1] is given as “decrease of paradoxical sleep phase”.
In the case of CN1CCN(C2=Nc3cc(Cl)ccc3Nc3ccccc32)CC1 [clozapine], the “atypical dozing characteristic for antischizophrenics” value [3] is listed as “atypical dozing characteristic”.
